Laboratory results reported in paper PMC4305510 (Analytical biochemistry, 2014).
Where two headings read alike, the source gives them in different places. Values belong to the molecule of their own block, whether it stands above or below them.

What was measured:
Sinapis alba myrosinase [1] = test: HPLC progress curves, pooled wavelengths; type: biochemical; details: read-out: Km (μM) / HPLC, 0.1 M phosphate pH 7.4, 37 °C
Sinapis alba myrosinase [2] = test: HPLC progress curves, pooled wavelengths; type: biochemical; details: read-out: Km (μM) / HPLC; 0.1 M phosphate pH 7.4, 37 °C; 14.52 U/ml myrosinase

Km (Sinapis alba myrosinase [1]; 4.84 U/ml myrosinase): 90.6 ± 6.8 µM
Structure (SMILES): O=S(=O)(O)O/N=C(/Cc1ccccc1)S[C@@H]1O[C@H](CO)[C@@H](O)[C@H](O)[C@H]1O [compound 6, glucotropaeolin]

Km (Sinapis alba myrosinase [1]; 4.27 U/ml myrosinase): 168 ± 17 µM
Structure (SMILES): C=CC/C(=N/OS(=O)(=O)O)S[C@@H]1O[C@H](CO)[C@@H](O)[C@H](O)[C@H]1O [compound 4, Sinigrin]

Km (Sinapis alba myrosinase [2]): 1160 ± 70 µM
Structure (SMILES): O=S(=O)(O)O/N=C(\S[C@@H]1O[C@H](CO)[C@@H](O)[C@H](O)[C@H]1O)c1ccccc1 [compound 5, Phenyl glucosinolate]
